Reference: PubChem BioAssay (NCI)
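Protocol summary: plate cells (96-well), add compound at 5 concentrations, incubate 48 h, interpolate endpoints linearly. The concentration for 50% growth inhibition is given as GI50. TGI is the concentration that stops growth completely.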

What was measured:
Assay in all cases: NCI-60 cell line screen, 48 h
K-562 leukemia = tested on: K-562 leukemia
SK-OV-3 ovarian = tested on: SK-OV-3 ovarian
U251 CNS = tested on: U251 CNS
SK-MEL-28 melanoma = tested on: SK-MEL-28 melanoma
MDA-MB-231 breast = tested on: MDA-MB-231 breast
NCI-H460 lung = tested on: NCI-H460 lung
SK-MEL-2 melanoma = tested on: SK-MEL-2 melanoma
MCF7 breast = tested on: MCF7 breast
OVCAR-4 ovarian = tested on: OVCAR-4 ovarian
OVCAR-3 ovarian = tested on: OVCAR-3 ovarian
HOP-62 NSCLC = tested on: HOP-62 NSCLC
M14 melanoma = tested on: M14 melanoma
HCT-15 colon = tested on: HCT-15 colon
MDA-N = tested on: MDA-N
OVCAR-8 ovarian = tested on: OVCAR-8 ovarian
SN12C renal = tested on: SN12C renal
MOLT-4 leukemia = tested on: MOLT-4 leukemia
NCI/ADR-RES ovarian = tested on: NCI/ADR-RES ovarian
RPMI-8226 leukemia = tested on: RPMI-8226 leukemia
NCI-H226 lung = tested on: NCI-H226 lung
T-47D breast = tested on: T-47D breast
SNB-75 CNS = tested on: SNB-75 CNS
MDA-MB-435 = tested on: MDA-MB-435
HS 578T breast = tested on: HS 578T breast
SNB-19 CNS = tested on: SNB-19 CNS
KM12 colon = tested on: KM12 colon
ACHN renal = tested on: ACHN renal
HCC-2998 colon = tested on: HCC-2998 colon
OVCAR-5 ovarian = tested on: OVCAR-5 ovarian
UACC-62 melanoma = tested on: UACC-62 melanoma
UO-31 renal = tested on: UO-31 renal
NCI-H23 lung = tested on: NCI-H23 lung
TK-10 renal = tested on: TK-10 renal
A549 NSCLC = tested on: A549 NSCLC
HT29 colon = tested on: HT29 colon
UACC-257 melanoma = tested on: UACC-257 melanoma
A498 renal = tested on: A498 renal
COLO 205 colon = tested on: COLO 205 colon
SF-268 CNS = tested on: SF-268 CNS
IGROV1 ovarian = tested on: IGROV1 ovarian
SF-539 CNS = tested on: SF-539 CNS
SF-295 CNS = tested on: SF-295 CNS
786-0 renal = tested on: 786-0 renal
HOP-92 NSCLC = tested on: HOP-92 NSCLC
RXF 393 renal = tested on: RXF 393 renal
EKVX NSCLC = tested on: EKVX NSCLC
SW-620 colon = tested on: SW-620 colon
HCT-116 colon = tested on: HCT-116 colon
SK-MEL-5 melanoma = tested on: SK-MEL-5 melanoma
DU-145 prostate = tested on: DU-145 prostate
LOX IMVI melanoma = tested on: LOX IMVI melanoma
MALME-3M melanoma = tested on: MALME-3M melanoma
HL-60(TB) leukemia = tested on: HL-60(TB) leukemia
NCI-H522 lung = tested on: NCI-H522 lung
CAKI-1 renal = tested on: CAKI-1 renal
SR leukemia = tested on: SR leukemia
CCRF-CEM leukemia = tested on: CCRF-CEM leukemia
PC-3 prostate = tested on: PC-3 prostate
BT-549 breast = tested on: BT-549 breast

O=C(Cc1ccccc1)NN1C(=O)/C(=C\c2cccc([N+](=O)[O-])c2)SC1=Nc1ccccc1
TGI (K-562 leukemia): > 100 µM
TGI (SK-OV-3 ovarian): > 100 µM
TGI (U251 CNS): > 100 µM
TGI (SK-MEL-28 melanoma): > 100 µM
TGI (MDA-MB-231 breast): > 100 µM
TGI (NCI-H460 lung): > 100 µM
TGI (SK-MEL-2 melanoma): > 100 µM
TGI (MCF7 breast): > 100 µM
TGI (OVCAR-4 ovarian): > 100 µM
TGI (OVCAR-3 ovarian): > 100 µM
TGI (HOP-62 NSCLC): > 100 µM
TGI (M14 melanoma): > 100 µM
TGI (HCT-15 colon): > 100 µM
TGI (MDA-N): > 100 µM
TGI (OVCAR-8 ovarian): > 100 µM
TGI (SN12C renal): > 100 µM
TGI (MOLT-4 leukemia): > 100 µM
TGI (NCI/ADR-RES ovarian): > 100 µM
TGI (RPMI-8226 leukemia): > 100 µM
TGI (NCI-H226 lung): > 100 µM
TGI (T-47D breast): > 100 µM
TGI (SNB-75 CNS): > 100 µM
TGI (MDA-MB-435): > 100 µM
TGI (HS 578T breast): > 100 µM
TGI (SNB-19 CNS): > 100 µM
TGI (KM12 colon): > 100 µM
TGI (ACHN renal): > 100 µM
TGI (HCC-2998 colon): > 100 µM
TGI (OVCAR-5 ovarian): > 100 µM
TGI (UACC-62 melanoma): > 100 µM
TGI (UO-31 renal): > 100 µM
TGI (NCI-H23 lung): > 100 µM
TGI (TK-10 renal): > 100 µM
TGI (A549 NSCLC): > 100 µM
TGI (HT29 colon): > 100 µM
TGI (UACC-257 melanoma): > 100 µM
TGI (A498 renal): > 100 µM
TGI (COLO 205 colon): > 100 µM
TGI (SF-268 CNS): > 100 µM
TGI (IGROV1 ovarian): > 100 µM
TGI (SF-539 CNS): > 100 µM
TGI (SF-295 CNS): > 100 µM
TGI (786-0 renal): > 100 µM
TGI (HOP-92 NSCLC): > 100 µM
TGI (RXF 393 renal): > 100 µM
TGI (EKVX NSCLC): > 100 µM
TGI (SW-620 colon): > 100 µM
TGI (HCT-116 colon): > 100 µM
TGI (SK-MEL-5 melanoma): > 100 µM
TGI (DU-145 prostate): > 100 µM

C#Cc1cccc(Nc2ncnc3ccc(OCCCCNCCS(C)(=O)=O)cc23)c1
GI50 (K-562 leukemia): 6.25 µM
TGI (K-562 leukemia): 14.6 µM
GI50 (LOX IMVI melanoma): 4.78 µM
TGI (LOX IMVI melanoma): 11.1 µM
GI50 (SK-OV-3 ovarian): 1.28 µM
TGI (SK-OV-3 ovarian): > 25 µM
GI50 (U251 CNS): 6.43 µM
TGI (U251 CNS): > 23.3 µM
GI50 (SK-MEL-28 melanoma): 4.58 µM
TGI (SK-MEL-28 melanoma): 8.56 µM
GI50 (MDA-MB-231 breast): 5.11 µM
TGI (MDA-MB-231 breast): 11.7 µM
GI50 (NCI-H460 lung): 10.5 µM
TGI (NCI-H460 lung): > 25 µM
GI50 (MALME-3M melanoma): 4.88 µM
TGI (MALME-3M melanoma): 9.47 µM
GI50 (HL-60(TB) leukemia): 5.37 µM
TGI (HL-60(TB) leukemia): 11.3 µM
GI50 (NCI-H522 lung): 2.97 µM
TGI (NCI-H522 lung): 7.86 µM
GI50 (SK-MEL-2 melanoma): 7.75 µM
TGI (SK-MEL-2 melanoma): 17.8 µM
GI50 (MCF7 breast): 9.5 µM
TGI (MCF7 breast): > 25 µM
GI50 (OVCAR-4 ovarian): 9.55 µM
TGI (OVCAR-4 ovarian): > 25 µM
GI50 (OVCAR-3 ovarian): 6.5 µM
TGI (OVCAR-3 ovarian): > 23.6 µM
GI50 (HOP-62 NSCLC): 11.5 µM
TGI (HOP-62 NSCLC): > 25 µM
GI50 (M14 melanoma): 5.11 µM
TGI (M14 melanoma): 9.66 µM
GI50 (CAKI-1 renal): 2.79 µM
TGI (CAKI-1 renal): > 25 µM
GI50 (HCT-15 colon): 7.41 µM
TGI (HCT-15 colon): > 25 µM
GI50 (OVCAR-8 ovarian): 7.56 µM
TGI (OVCAR-8 ovarian): > 25 µM
GI50 (SN12C renal): 5.89 µM
TGI (SN12C renal): > 25 µM
GI50 (MOLT-4 leukemia): 7.97 µM
TGI (MOLT-4 leukemia): 21.4 µM
GI50 (NCI/ADR-RES ovarian): 11.4 µM
TGI (NCI/ADR-RES ovarian): > 25 µM
GI50 (RPMI-8226 leukemia): 4.59 µM
TGI (RPMI-8226 leukemia): 15.3 µM
GI50 (NCI-H226 lung): > 19.6 µM
TGI (NCI-H226 lung): > 25 µM
GI50 (T-47D breast): 7.2 µM
TGI (T-47D breast): > 25 µM
GI50 (SNB-75 CNS): 10.7 µM
TGI (SNB-75 CNS): > 25 µM
GI50 (SR leukemia): 6.55 µM
TGI (SR leukemia): 15.3 µM
GI50 (MDA-MB-435): 5.37 µM
TGI (MDA-MB-435): 12.5 µM
GI50 (HS 578T breast): 8.66 µM
TGI (HS 578T breast): > 23.2 µM
GI50 (SNB-19 CNS): 15.2 µM
TGI (SNB-19 CNS): > 25 µM
GI50 (KM12 colon): 9.74 µM
TGI (KM12 colon): > 25 µM
GI50 (ACHN renal): 0.945 µM
TGI (ACHN renal): > 25 µM
GI50 (HCC-2998 colon): 7.83 µM
TGI (HCC-2998 colon): > 25 µM
GI50 (OVCAR-5 ovarian): 4.93 µM
TGI (OVCAR-5 ovarian): > 25 µM
GI50 (UACC-62 melanoma): 4.82 µM
TGI (UACC-62 melanoma): 9.1 µM
GI50 (UO-31 renal): 3.31 µM
TGI (UO-31 renal): > 15.4 µM
GI50 (NCI-H23 lung): 16.7 µM
TGI (NCI-H23 lung): > 25 µM
GI50 (CCRF-CEM leukemia): 7.65 µM
TGI (CCRF-CEM leukemia): > 25 µM
GI50 (TK-10 renal): 0.238 µM
TGI (TK-10 renal): 6.27 µM
GI50 (PC-3 prostate): 9.55 µM
TGI (PC-3 prostate): > 25 µM
GI50 (A549 NSCLC): 6.43 µM
TGI (A549 NSCLC): > 25 µM
GI50 (HT29 colon): 5.44 µM
TGI (HT29 colon): 12.5 µM
GI50 (UACC-257 melanoma): 4.39 µM
TGI (UACC-257 melanoma): 8.38 µM
GI50 (A498 renal): 3.18 µM
TGI (A498 renal): 9.75 µM
GI50 (COLO 205 colon): 5.58 µM
TGI (COLO 205 colon): 12.3 µM
GI50 (SF-268 CNS): 6.13 µM
TGI (SF-268 CNS): > 23.7 µM
GI50 (IGROV1 ovarian): 2.12 µM
TGI (IGROV1 ovarian): > 16.3 µM
GI50 (SF-539 CNS): 4.49 µM
TGI (SF-539 CNS): 8.72 µM
GI50 (SF-295 CNS): 8.84 µM
TGI (SF-295 CNS): > 25 µM
GI50 (786-0 renal): 7.54 µM
TGI (786-0 renal): > 25 µM
GI50 (HOP-92 NSCLC): 1.68 µM
TGI (HOP-92 NSCLC): 14.4 µM
GI50 (RXF 393 renal): 5.32 µM
TGI (RXF 393 renal): > 22.6 µM
GI50 (EKVX NSCLC): 0.161 µM
TGI (EKVX NSCLC): > 25 µM
GI50 (SW-620 colon): 9.43 µM
TGI (SW-620 colon): > 25 µM
GI50 (BT-549 breast): 8.33 µM
TGI (BT-549 breast): > 25 µM
GI50 (HCT-116 colon): 6.81 µM
TGI (HCT-116 colon): > 18.7 µM
GI50 (SK-MEL-5 melanoma): 4.26 µM
TGI (SK-MEL-5 melanoma): 8.63 µM
GI50 (DU-145 prostate): 4.34 µM
TGI (DU-145 prostate): > 25 µM
